Data taken from patent publication US10175256B2, “Compositions and methods utilizing lysophosphatidylcholine scaffolds” (National University Of Singapore, priority 2013, dated 2019).
Where “and” joins values, the source holds several entries; their conditions need not be identical. Equal values may be shown once.

Target: T1, mouse Mfsd2a (Mus musculus, UniProt Q9DA75)
T1 construct: expressed in transfected cells; host or cells: HEK293
T1 sequence (Q9DA75 1-534): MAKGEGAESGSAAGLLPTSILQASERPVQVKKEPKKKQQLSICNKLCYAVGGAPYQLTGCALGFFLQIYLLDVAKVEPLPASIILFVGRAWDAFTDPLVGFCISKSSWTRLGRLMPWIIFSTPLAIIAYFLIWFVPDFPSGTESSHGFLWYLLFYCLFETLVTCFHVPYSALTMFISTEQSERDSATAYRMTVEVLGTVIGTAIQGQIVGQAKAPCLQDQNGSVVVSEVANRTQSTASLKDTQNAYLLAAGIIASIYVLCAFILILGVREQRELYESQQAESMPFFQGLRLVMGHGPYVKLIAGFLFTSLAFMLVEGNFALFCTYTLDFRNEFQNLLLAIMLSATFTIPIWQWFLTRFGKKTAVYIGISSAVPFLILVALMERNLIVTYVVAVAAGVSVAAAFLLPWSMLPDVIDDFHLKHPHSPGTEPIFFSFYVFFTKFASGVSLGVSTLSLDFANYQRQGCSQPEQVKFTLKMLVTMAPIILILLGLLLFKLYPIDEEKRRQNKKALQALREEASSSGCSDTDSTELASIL
Test: Cell-based free fatty acid transport/uptake in Mfsd2a expressing HEK293 cells (mass spectrometry, TLC; Table 1)
Conditions: Mfsd2a HEK293 cells, 100 uM fatty acid/BSA overnight
Summary of the method: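 HEK293 cells expressing mouse Mfsd2a, or mock controls, were incubated overnight with 100 μM BSA-complexed fatty acids. Lipids were extracted in hexane:isopropanol (3:2) and phospholipid species quantified by HPLC-MS/MS against spiked internal standards. For TLC, cells received 100 μM [^14C]-oleate overnight, and phospholipids and neutral lipids were resolved.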

SMILES: CCCCCCCCCCCCCCCC(=O)O [Palmitic acid]
- % DHA in PC + lysoPC: 0.03823% and 0.0379% and 0.03421%
- % DHA in PE + lysoPE: 10.42% and 11.02% and 9.771%
- % DHA in PI and lysoPI: 0.01451% and 0.01192% and 0.01113%
- % DHA in PS: 0.1262% and 0.1099% and 0.1138%
- LPI16:0 in total phospholipid: 0.004365 mol percent and 0.003505 mol percent and 0.0022 mol percent
- LPI18:0 in total phospholipid: 0.02606 mol percent and 0.0265 mol percent and 0.02588 mol percent
- LPI20:4 in total phospholipid: 0.001669 mol percent and 0.001542 mol percent and 0.001553 mol percent
- LPI22:6 in total phospholipid: 0.007831 mol percent and 0.008132 mol percent and 0.006212 mol percent
- Lyso PE16:0p in total phospholipid: 2.777 mol percent and 2.934 mol percent and 3.347 mol percent
- Lyso PE18:0p in total phospholipid: 0.434 mol percent and 0.5456 mol percent and 0.7875 mol percent
- Lyso PE20:0p in total phospholipid: 0.2604 mol percent and 0.1622 mol percent and 0.3221 mol percent
- LysoPC16:0e in total phospholipid: 0.004306 mol percent and 0.004045 mol percent and 0.00338 mol percent
- LysoPC16:0 in total phospholipid: 0.02231 mol percent and 0.02238 mol percent and 0.01839 mol percent
- LysoPC16:1 in total phospholipid: 0.006002 mol percent and 0.005731 mol percent and 0.005746 mol percent
- LysoPC18:0e in total phospholipid: 0.002349 mol percent and 0.002697 mol percent and 0.00142 mol percent
- LysoPC18:0 in total phospholipid: 0.005806 mol percent and 0.006675 mol percent and 0.006016 mol percent
- LysoPC18:1 in total phospholipid: 0.01311 mol percent and 0.01254 mol percent and 0.01251 mol percent
- LysoPC18:2 in total phospholipid: 0.001631 mol percent and 0.001146 mol percent and 0.001487 mol percent
- LysoPC20:4 in total phospholipid: 0.000587 mol percent and 0.000539 mol percent and 0.000608 mol percent
- LysoPC22:6 in total phospholipid: 0.000652 mol percent and 0.000809 mol percent and 0.000879 mol percent
- LysoPE16:1 in total phospholipid: 0.1736 mol percent and 0.1327 mol percent and 0.1253 mol percent
- LysoPE18:0 in total phospholipid: 0.1042 mol percent and 0.08847 mol percent and 0.1611 mol percent
- LysoPE18:1 in total phospholipid: 0.1215 mol percent and 0.07373 mol percent and 0.07159 mol percent
- PC32:0e in total phospholipid: 1.809 mol percent and 1.851 mol percent and 1.702 mol percent
- PC32:0 in total phospholipid: 2.456 mol percent and 2.444 mol percent and 2.298 mol percent
- PC32:1e in total phospholipid: 2.403 mol percent and 2.512 mol percent and 2.3 mol percent
- PC32:1 in total phospholipid: 9.104 mol percent and 9.244 mol percent and 8.731 mol percent
- PC32:2 in total phospholipid: 1.488 mol percent and 1.519 mol percent and 1.412 mol percent
- PC34:1e in total phospholipid: 4.813 mol percent and 4.891 mol percent and 4.611 mol percent
- PC34:1 in total phospholipid: 18.56 mol percent and 18.94 mol percent and 17.94 mol percent
- PC34:2e in total phospholipid: 1.486 mol percent and 1.537 mol percent and 1.423 mol percent
- PC34:2 in total phospholipid: 6.06 mol percent and 6.22 mol percent and 5.829 mol percent
- PC34:3e in total phospholipid: 0.2283 mol percent and 0.2319 mol percent and 0.2175 mol percent
- PC34:3 in total phospholipid: 0.615 mol percent and 0.6295 mol percent and 0.5976 mol percent
- PC36:1e in total phospholipid: 1.432 mol percent and 1.425 mol percent and 1.342 mol percent
- PC36:1 in total phospholipid: 2.54 mol percent and 2.547 mol percent and 2.409 mol percent
- PC36:2e in total phospholipid: 1.609 mol percent and 1.633 mol percent and 1.504 mol percent
- PC36:2 in total phospholipid: 5.692 mol percent and 5.815 mol percent and 5.439 mol percent
- PC36:3e in total phospholipid: 0.8012 mol percent and 0.8224 mol percent and 0.7603 mol percent
- PC36:3 in total phospholipid: 1.149 mol percent and 1.165 mol percent and 1.071 mol percent
- PC36:4e in total phospholipid: 0.4287 mol percent and 0.4448 mol percent and 0.4173 mol percent
- PC36:4 in total phospholipid: 0.3268 mol percent and 0.3193 mol percent and 0.308 mol percent
- PC36:5e in total phospholipid: 0.3253 mol percent and 0.3343 mol percent and 0.309 mol percent
- PC36:5 in total phospholipid: 0.05232 mol percent and 0.05663 mol percent and 0.05164 mol percent
- PC36:6 in total phospholipid: 0.05108 mol percent and 0.04821 mol percent and 0.04326 mol percent
- PC38:1e in total phospholipid: 0.3517 mol percent and 0.3555 mol percent and 0.3378 mol percent
- PC38:3e in total phospholipid: 0.4164 mol percent and 0.4068 mol percent and 0.3798 mol percent
- PC38:3 in total phospholipid: 0.5146 mol percent and 0.5317 mol percent and 0.5066 mol percent
- PC38:4e in total phospholipid: 0.4168 mol percent and 0.4143 mol percent and 0.3843 mol percent
- PC38:4 in total phospholipid: 0.4407 mol percent and 0.4455 mol percent and 0.4228 mol percent
- PC38:5e in total phospholipid: 0.3513 mol percent and 0.3625 mol percent and 0.3264 mol percent
- PC38:5 in total phospholipid: 0.2268 mol percent and 0.2451 mol percent and 0.2273 mol percent
- PC38:6 in total phospholipid: 0.1683 mol percent and 0.1727 mol percent and 0.1591 mol percent
- PC38:7 in total phospholipid: 0.1176 mol percent and 0.1195 mol percent and 0.1136 mol percent
- PC40:1e in total phospholipid: 0.1793 mol percent and 0.1879 mol percent and 0.168 mol percent
- PC40:2e in total phospholipid: 0.1944 mol percent and 0.1992 mol percent and 0.1788 mol percent
- PC40:3e in total phospholipid: 0.1397 mol percent and 0.1434 mol percent and 0.1332 mol percent
- PC40:4e in total phospholipid: 0.1237 mol percent and 0.1272 mol percent and 0.1205 mol percent
- PC40:5e in total phospholipid: 0.1172 mol percent and 0.1169 mol percent and 0.1115 mol percent
- PC40:5 in total phospholipid: 0.08233 mol percent and 0.08765 mol percent and 0.07997 mol percent
- PC40:6 in total phospholipid: 0.1131 mol percent and 0.1203 mol percent and 0.105 mol percent
- PC40:7 in total phospholipid: 0.1694 mol percent and 0.1653 mol percent and 0.1619 mol percent
- PE32:1 in total phospholipid: 0.4397 mol percent and 0.3146 mol percent and 0.3699 mol percent
- PE32:2 in total phospholipid: 0.09258 mol percent and 0.118 mol percent and 0.1193 mol percent
- PE34:1 in total phospholipid: 1.562 mol percent and 1.425 mol percent and 1.336 mol percent
- PE34:2 in total phospholipid: 1.088 mol percent and 0.9634 mol percent and 1.014 mol percent
- PE34p:1 in total phospholipid: 1.042 mol percent and 1.072 mol percent and 1.479 mol percent
